According to ChEMBL document CHEMBL2177046, “New aminoimidazoles as β-secretase (BACE-1) inhibitors showing amyloid-β (Aβ) lowering in brain” (J Med Chem, 2012):

Assays:
[1] = Dissociation constant, pKa of the compound by pressure-assisted capillary electrophoretic method; type: physicochemical
in vitro = conditions: human, Caco-2
[2] = Plasma concentration in C57BL/6 mouse at 100 umol/kg, po at […]; type: ADME, organism-based
Plasma [3] = test: Free plasma concentration in C57BL/6 mouse at 100 umol/kg, po at […]; type: ADME, organism-based; conditions: in vivo
[4] = Ratio of free drug concentration in brain to free drug concentration in plasma in guinea pig; type: ADME, Cavia porcellus; conditions: brain and plasma, read-out: K(p,uu,brain)
[5] = Ratio of free drug concentration in brain to free drug concentration in plasma in C57BL/6 mouse at 100 umol/kg, po at […]; type: ADME, organism-based; conditions: brain and plasma, read-out: K(p,uu,brain)
Brain [6] = test: Free drug concentration in C57BL/6 mouse brain at 100 umol/kg, po at […]; type: ADME, organism-based; conditions: in vivo
[7] = Drug uptake in C57BL/6 mouse brain at 100 umol/kg, po at […]; type: ADME, organism-based; conditions: read-out: Drug uptake
[8] = Ratio of free drug concentration in brain to free drug concentration in plasma in C57BL/6 mouse at 30 umol/kg, iv at […]; type: ADME, organism-based; conditions: brain and plasma, read-out: K(p,uu,brain)
[9] = Drug uptake in C57BL/6 mouse brain at 30 umol/kg, iv at […]; type: ADME, organism-based; conditions: read-out: Drug uptake
Brain [10] = test: Free drug concentration in C57BL/6 mouse brain at 30 umol/kg, iv at […]; type: ADME, organism-based; conditions: in vivo
Plasma [11] = test: Free plasma concentration in C57BL/6 mouse at 30 umol/kg, iv at […]; type: ADME, organism-based; conditions: in vivo
[12] = Plasma concentration in C57BL/6 mouse at 30 umol/kg, iv at […]; type: ADME, organism-based
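For logD in this document: lipophilicity determined by reversed-phase HPLC.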

| Structure (SMILES) | logD (physchem) | pKa [1] | Papp A→B at 10 µM (in vitro) [×10⁻⁶ cm/s] | also measured |
| --- | --- | --- | --- | --- |
| COc1c(C)cc(C2(c3cccc(-c4cncnc4)c3)N=C(C)C(N)=N2)cc1C (configuration not stated) | 1.9 | 5.3 | 28 | – |
| CC1=NC(c2ccc(F)cc2)(c2cccc(-c3cccnc3)c2)N=C1N (configuration not stated) | 2 | 4.9 | 41 | – |
| CC1=N[C@@](Cc2ccccc2)(c2cccc(-c3cncnc3)c2)N=C1N | 1.2 | 6 | 31 | – |
| COc1cccc(-c2cccc(C3(c4ccncc4)N=C(C)C(N)=N3)c2)c1 (configuration not stated) | – | – | 40 | – |
| COc1ccc(C2(c3cccc(-c4cncnc4)c3)N=C(C)C(N)=N2)cc1C (configuration not stated) | 1.7 | – | 19 | – |
| COc1cccc(-c2cccc(C3(C4CCN(C(C)=O)CC4)N=C(C)C(N)=N3)c2)c1 (configuration not stated) | – | 5.7 | – | – |
| COc1c(C)cc([C@]2(c3cccc(-c4cncnc4)c3)N=C(C)C(N)=N2)cc1C | 1.8 | – | 21 | – |
| CC#Cc1cncc(-c2cc(C3(C4CC4)N=C(C)C(N)=N3)ccc2O)c1 (configuration not stated) | 1.2 | 5.9 | 2 | – |
| COc1c(C)cc([C@@]2(c3cccc(-c4cncnc4)c3)N=C(C)C(N)=N2)cc1C | 1.8 | 5.2 | 22 | concentration at […] [2]: 4500 nM; Cp(f) (Plasma [3]): 490 nM; Kp uu [4]: 0.16; Kp uu at […] [5]: 0.05; Drug uptake(free) (Brain [6]): 19 nmol/L; concentration at […] [7]: 230 nM |
| COc1ccc(C2(c3cccc(-c4cncnc4)c3)N=C(C)C(N)=N2)cc1 (configuration not stated) | 1.1 | 5.2 | 21 | – |
| CC1=NC(c2cccc(-c3cncc(Cl)c3)c2)(C2CC2)N=C1N (configuration not stated) | 2 | – | 57 | Kp uu at […] [8]: 0.16; concentration at […] [9]: 180 nM; Drug uptake(free) (Brain [10]): 9 nmol/L; Cp(f) (Plasma [11]): 60 nM; concentration at […] [12]: 1200 nM |
| CC#Cc1cncc(-c2cccc(C3(c4cc(C)c(OC)c(C)c4)N=C(C)C(N)=N3)c2)c1 (configuration not stated) | 3.7 | – | 12 | – |
| CC#Cc1cncc(-c2cccc(C3(C4CC4)N=C(C)C(N)=N3)c2)c1 (configuration not stated) | 2.3 | 5.8 | 27 | Kp uu at […] [8]: 0.07; concentration at […] [9]: 980 nM; Drug uptake(free) (Brain [10]): 21 nmol/L; Cp(f) (Plasma [11]): 310 nM; concentration at […] [12]: 3700 nM |
| COc1ccc(C2(c3cccc(-c4cncnc4)c3)N=C(N)C(C(C)C)=N2)cc1 (configuration not stated) | 2.4 | 5.3 | 30 | – |
| CC#Cc1ccnc(-c2cc(C3(C4CC4)N=C(C)C(N)=N3)ccc2O)c1 (configuration not stated) | 2.9 | – | 19 | – |
| COc1cccc(-c2cccc(C3(C4CCOCC4)N=C(C)C(N)=N3)c2)c1 (configuration not stated) | 2.5 | 6 | 22 | – |

Now from value to molecule, other results behind:

| logD (physchem) | pKa [1] | Papp A→B at 10 µM (in vitro) [×10⁻⁶ cm/s] | Structure (SMILES) | also measured |
| --- | --- | --- | --- | --- |
| 0.2 | 6.7 | 30 | CC1=NC(C)(c2cccc(-c3cccnc3)c2)N=C1N (configuration not stated) | – |
| 2.2 | 6.5 | 34 | COc1cccc(-c2cccc(C3(C)N=C(C)C(N)=N3)c2)c1 (configuration not stated) | – |
| 2.4 | 5.2 | 30 | CC(C)C1=NC(c2ccccc2)(c2cccc(-c3cncnc3)c2)N=C1N (configuration not stated) | – |
| 2.6 | 6.2 | 41 | CC1=NC(c2cccc(-c3cccnc3)c2)(C2CCCCC2)N=C1N (configuration not stated) | – |
| 1.1 | 5.9 | 38 | CC(C)C1=NC(C)(c2cccc(-c3cccnc3)c2)N=C1N (configuration not stated) | – |
| 1.7 | 5.7 | 28 | COc1ccc(C2(c3cccc(-c4cccnc4)c3)N=C(C)C(N)=N2)cc1 (configuration not stated) | Kp uu at […] [8]: 0.08; concentration at […] [9]: 710 nM; Drug uptake(free) (Brain [10]): 54 nmol/L; Cp(f) (Plasma [11]): 720 nM; concentration at […] [12]: 11500 nM |
| 1.8 | – | – | CC1=NC(c2ccccc2)(c2cccc(-c3cccnc3)c2)N=C1N (configuration not stated) | – |
| 2.1 | 5.4 | 46 | CC1(c2cccc(-c3cccnc3)c2)N=C(N)C(c2ccccc2)=N1 (configuration not stated) | – |
